Activity calls are given as the source filed them.
Assays:
MCF-10A = assay: Antiproliferative activity against human MCF10A cells assessed as reduction in cell viability after 48 hrs celltiter glo assay; format: cell-based
[1] = biological target: T1, Ribosomal protein S6 kinase alpha-3 (Homo sapiens, UniProt P51812)
Description: Inhibition of RSK2 assessed as inhibition of substrate phosphorylation using fluorescent peptide substrate by microplate reader assay

[2] = biological target: T2, Serine/threonine-protein kinase Chk1 (Homo sapiens, UniProt O14757)
T2 sequence (O14757 whole entry): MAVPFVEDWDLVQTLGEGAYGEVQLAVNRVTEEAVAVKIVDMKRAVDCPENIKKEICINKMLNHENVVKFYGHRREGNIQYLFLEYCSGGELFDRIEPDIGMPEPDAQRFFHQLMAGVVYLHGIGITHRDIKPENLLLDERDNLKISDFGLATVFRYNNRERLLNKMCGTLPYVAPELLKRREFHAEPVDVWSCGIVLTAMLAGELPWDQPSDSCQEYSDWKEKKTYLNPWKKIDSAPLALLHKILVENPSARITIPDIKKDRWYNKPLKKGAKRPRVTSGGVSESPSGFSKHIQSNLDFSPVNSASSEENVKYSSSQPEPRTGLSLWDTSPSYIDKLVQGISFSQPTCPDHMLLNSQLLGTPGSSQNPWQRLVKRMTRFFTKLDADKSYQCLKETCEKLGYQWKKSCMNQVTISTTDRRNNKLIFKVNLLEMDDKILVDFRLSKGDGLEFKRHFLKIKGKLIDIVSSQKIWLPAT
Description: Inhibition of CHK1 assessed as inhibition of substrate phosphorylation using fluorescent peptide substrate by microplate reader assay

MCF7 = assay: Antiproliferative activity against human MCF7 cells assessed as reduction in cell viability after 48 hrs celltiter glo assay; format: functional, cell-based
[3] = biological target: Serine/threonine-protein kinase Chk2 (Homo sapiens, UniProt O96017)
Description: Inhibition of CHK2 assessed as inhibition of substrate phosphorylation using fluorescent peptide substrate by microplate reader assay

[4] = biological target: T3, Aurora kinase A (Homo sapiens) (UniProt O14965); assay: Inhibition of Aurora kinase A assessed as inhibition of substrate phosphorylation using fluorescent peptide substrate up to 100 uM by microplate reader assay
T3 sequence (whole entry): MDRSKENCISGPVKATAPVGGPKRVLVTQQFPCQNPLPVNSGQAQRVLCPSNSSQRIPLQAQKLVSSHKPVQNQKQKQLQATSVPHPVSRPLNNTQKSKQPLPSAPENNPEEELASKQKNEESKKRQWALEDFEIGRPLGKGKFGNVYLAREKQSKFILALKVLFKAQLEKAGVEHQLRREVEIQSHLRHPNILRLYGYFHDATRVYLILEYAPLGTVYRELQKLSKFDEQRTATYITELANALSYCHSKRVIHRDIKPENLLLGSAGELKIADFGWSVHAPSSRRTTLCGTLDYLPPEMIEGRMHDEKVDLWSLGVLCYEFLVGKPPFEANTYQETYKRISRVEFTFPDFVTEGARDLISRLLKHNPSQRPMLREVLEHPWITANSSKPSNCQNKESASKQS

[5] = biological target: T1, Ribosomal protein S6 kinase alpha-3; assay: Inhibition of RSK2-mediated GSK3-beta Ser9 phosphorylation in TPA-induced human MCF7 cells at 10 nM pretreated for 30 mins by immunoblotting; format: cell-based
[6] = biological target: T1, Ribosomal protein S6 kinase alpha-3; assay: Inhibition of RSK2-mediated GSK3alpha Ser21 phosphorylation in TPA-induced human MCF7 cells at 10 nM pretreated for 30 mins by immunoblotting; format: cell-based

T1 sequence (P51812 whole entry): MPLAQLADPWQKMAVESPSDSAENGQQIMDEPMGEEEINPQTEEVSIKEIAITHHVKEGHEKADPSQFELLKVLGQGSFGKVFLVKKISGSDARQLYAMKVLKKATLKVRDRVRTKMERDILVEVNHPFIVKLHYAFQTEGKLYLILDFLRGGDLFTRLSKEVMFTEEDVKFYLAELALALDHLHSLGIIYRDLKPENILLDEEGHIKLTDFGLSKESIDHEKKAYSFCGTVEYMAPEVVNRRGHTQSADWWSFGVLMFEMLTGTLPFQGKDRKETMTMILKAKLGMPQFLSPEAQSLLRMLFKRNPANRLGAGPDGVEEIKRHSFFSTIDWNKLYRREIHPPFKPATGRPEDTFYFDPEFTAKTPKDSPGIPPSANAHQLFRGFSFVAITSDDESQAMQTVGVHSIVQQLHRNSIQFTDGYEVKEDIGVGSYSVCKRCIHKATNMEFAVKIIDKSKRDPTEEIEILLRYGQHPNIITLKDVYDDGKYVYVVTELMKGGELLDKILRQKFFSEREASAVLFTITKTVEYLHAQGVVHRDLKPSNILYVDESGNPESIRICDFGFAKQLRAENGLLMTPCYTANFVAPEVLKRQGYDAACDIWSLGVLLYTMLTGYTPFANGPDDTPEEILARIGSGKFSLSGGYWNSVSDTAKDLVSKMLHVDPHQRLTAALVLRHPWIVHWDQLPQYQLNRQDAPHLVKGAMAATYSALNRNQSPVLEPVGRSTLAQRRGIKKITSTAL
Chain of Serine/threonine-protein kinase Chk2 (O96017 whole entry): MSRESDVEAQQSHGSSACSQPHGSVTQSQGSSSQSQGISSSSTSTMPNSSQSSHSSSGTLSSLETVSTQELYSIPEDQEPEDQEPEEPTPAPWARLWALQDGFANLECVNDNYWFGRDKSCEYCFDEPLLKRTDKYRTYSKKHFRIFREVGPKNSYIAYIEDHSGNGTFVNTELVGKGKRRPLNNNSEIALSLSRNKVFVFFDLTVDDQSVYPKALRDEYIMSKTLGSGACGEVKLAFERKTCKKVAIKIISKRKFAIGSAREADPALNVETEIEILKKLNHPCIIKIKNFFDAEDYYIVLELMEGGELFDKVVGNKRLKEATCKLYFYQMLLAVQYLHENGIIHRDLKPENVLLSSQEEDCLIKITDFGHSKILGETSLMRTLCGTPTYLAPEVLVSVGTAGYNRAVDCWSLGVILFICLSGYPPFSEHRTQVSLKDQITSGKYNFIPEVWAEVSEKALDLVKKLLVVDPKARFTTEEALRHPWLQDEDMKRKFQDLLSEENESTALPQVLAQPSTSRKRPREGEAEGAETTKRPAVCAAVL

## Cl.N=C(N)N/N=C/c1c(-c2ccc(Cl)c([N+](=O)[O-])c2)nc2sc(Cl)cn12
MCF-10A
  Activity: Non-toxic
[1]
  IC50: 5.85 µM
[2]
  IC50: > 100 µM
MCF7
  Activity: Active
[3]
  IC50: 90 µM

## N=C(N)N/N=C\c1c(-c2ccc(F)cc2)nc2sccn12
[1]
  IC50: > 100 µM
[4]
  inhibition: inactive
[2]
  IC50: > 100 µM
[3]
  IC50: > 100 µM

## Cc1cn2c(/C=N\NC(=N)N)c(-c3ccc(F)cc3)nc2s1
[1]
  IC50: > 100 µM
[4]
  inhibition: inactive
[2]
  IC50: > 100 µM
[3]
  IC50: > 50 µM

## N=C(N)N/N=C/c1c(-c2ccc([N+](=O)[O-])cc2)nc2sc(Cl)cn12
[5]
  inhibition: 50%
[1]
  IC50: 0.97 µM
[6]
  inhibition: 50%
[4]
  inhibition: 50%
[2]
  IC50: > 100 µM
[3]
  IC50: 78.8 µM

## COc1cc([N+](=O)[O-])c(OC)cc1-c1nc2sc3ccccc3n2c1/C=N/NC(=N)N
[1]
  IC50: 10.1 µM
[4]
  inhibition: inactive
[2]
  IC50: > 100 µM
[3]
  IC50: > 100 µM

## N=C(N)N/N=C/c1c(-c2cc(Cl)sc2Cl)nc2sc(Cl)cn12
[1]
  IC50: 8.26 µM
[4]
  inhibition: inactive
[2]
  IC50: > 100 µM
[3]
  IC50: > 100 µM

## N#Cc1ccc(-c2nc3sc(Cl)cn3c2/C=N/NC(=N)N)cc1
[1]
  IC50: 8.55 µM
[4]
  inhibition: inactive
[2]
  IC50: > 100 µM
[3]
  IC50: 93.5 µM

## N=C(N)N/N=C/c1c(-c2cc(Cl)sc2Cl)nc2sc3ccccc3n12
[1]
  IC50: 12 µM
[4]
  inhibition: inactive
[2]
  IC50: > 100 µM
[3]
  IC50: > 100 µM

## N=C(N)N/N=C/c1c(-c2ccc(F)cc2)nc2sc(Cl)cn12
[1]
  IC50: 86 µM
[4]
  inhibition: inactive
[2]
  IC50: > 100 µM
[3]
  IC50: 90 µM

## COc1cc([N+](=O)[O-])c(OC)cc1-c1nc2ccccn2c1/C=N/NC(=N)N
[1]
  IC50: 7.8 µM
[4]
  inhibition: inactive
[2]
  IC50: > 100 µM
[3]
  IC50: > 100 µM

## Cc1sc2nc(-c3cccnc3)c(/C=N/NC(=N)N)n2c1C
[1]
  IC50: 100 µM
[2]
  IC50: > 100 µM
[3]
  IC50: 6.58 µM

## Cc1cn2c(/C=N/NC(=N)N)c(-c3ccc([N+](=O)[O-])cc3)nc2s1.Cl
MCF-10A
  Activity: Toxic
[1]
  IC50: 2.8 µM
[2]
  IC50: > 100 µM
MCF7
  Activity: Active
[3]
  IC50: 83 µM

## CCc1cn2c(/C=N/NC(=N)N)c(-c3cc([N+](=O)[O-])c(Cl)cc3Cl)nc2s1
[1]
  IC50: 83 µM
[2]
  IC50: > 20 µM
[3]
  IC50: 59 µM

## CCCc1cn2c(/C=N/NC(=N)N)c(-c3cccc([N+](=O)[O-])c3)nc2s1
[1]
  IC50: 13.2 µM
[2]
  IC50: > 100 µM
[3]
  IC50: 69.5 µM

## N=C(N)N/N=C/c1c(-c2cc(Cl)sc2Cl)nc2sccn12
[1]
  IC50: 79 µM
[2]
  IC50: > 100 µM
[3]
  IC50: 65 µM

## Cl.N=C(N)N/N=C\c1c(-c2ccc([N+](=O)[O-])cc2)nc2sc(F)cn12
MCF-10A
  Activity: Non-toxic
[5]
  inhibition: 50%
[1]
  IC50: 2.15 µM
[6]
  inhibition: 50%
[4]
  inhibition: inactive
[2]
  IC50: > 100 µM
MCF7
  Activity: Active
[3]
  IC50: 56.5 µM

## Cc1cn2c(/C=N/NC(=N)N)c(-c3ccc(Cl)c([N+](=O)[O-])c3)nc2s1
[1]
  IC50: 3.76 µM
[2]
  IC50: > 100 µM
[3]
  IC50: 64.8 µM

## Cc1cn2c(/C=N\NC(=N)N)c(-c3ccc(F)c([N+](=O)[O-])c3)nc2s1
[1]
  IC50: 30.7 µM
[4]
  inhibition: inactive
[2]
  IC50: 78.5 µM
[3]
  IC50: 18.8 µM

## CCCc1cn2c(/C=N/NC(=N)N)c(-c3ccc(Cl)c([N+](=O)[O-])c3)nc2s1
[1]
  IC50: 6.43 µM
[2]
  IC50: > 100 µM
[3]
  IC50: 90.5 µM

## CCCc1cn2c(/C=N/NC(=N)N)c(-c3cc([N+](=O)[O-])c(Cl)cc3Cl)nc2s1
[1]
  IC50: 5.97 µM
[2]
  IC50: > 100 µM
[3]
  IC50: > 100 µM

## N=C(N)N/N=C\c1c(-c2ccc(F)c([N+](=O)[O-])c2)nc2sccn12
[1]
  IC50: 53.8 µM
[4]
  inhibition: inactive
[2]
  IC50: > 100 µM
[3]
  IC50: 77.5 µM

## N=C(N)N/N=C/c1c(-c2cccc([N+](=O)[O-])c2)nc2sc(Cl)cn12
[1]
  IC50: 6.03 µM
[2]
  IC50: > 100 µM
[3]
  IC50: > 100 µM

## Cc1sc2nc(-c3ccc(Cl)c([N+](=O)[O-])c3)c(/C=N/NC(=N)N)n2c1C
[1]
  IC50: 13.9 µM
[2]
  IC50: > 100 µM
[3]
  IC50: 48.5 µM

## N=C(N)N/N=C\c1c(-c2ccc(Br)c([N+](=O)[O-])c2)nc2sccn12
[1]
  IC50: 56.7 µM
[4]
  inhibition: inactive
[2]
  IC50: > 100 µM
[3]
  IC50: > 100 µM

## N=C(N)N/N=C/c1c(-c2ccc(F)c([N+](=O)[O-])c2)nc2sc(Cl)cn12
[1]
  IC50: 3.93 µM
[4]
  inhibition: inactive
[2]
  IC50: > 100 µM
[3]
  IC50: 41.3 µM

## Cl.N=C(N)N/N=C/c1c(-c2ccc(Cl)c([N+](=O)[O-])c2)nc2sccn12
MCF-10A
  Activity: Non-toxic
[1]
  IC50: 3.13 µM
[2]
  IC50: > 100 µM
MCF7
  Activity: Active
[3]
  IC50: 81 µM

## N=C(N)N/N=C/c1c(-c2ccc(Cl)c([N+](=O)[O-])c2)nc2sc3ccccc3n12
[1]
  IC50: 7.32 µM
[2]
  IC50: > 100 µM
[3]
  IC50: > 100 µM

## CCCc1cn2c(/C=N/NC(=N)N)c(-c3ccc([N+](=O)[O-])cc3)nc2s1
[1]
  IC50: 20.9 µM
[2]
  IC50: > 100 µM
[3]
  IC50: > 100 µM

Source: ChEMBL document CHEMBL1909514, “Imidazo[2,1-b]thiazole guanylhydrazones as RSK2 inhibitors” (Eur J Med Chem, 2011)
